The values below come from patent US6472418B1, “Non-peptide NK1 receptors antagonists” (Warner-Lambert Company, priority 1998, dated 2002).

In general, IC50 refers to the concentration at which inhibition is half-maximal.

T1 sequence (P25103 whole entry): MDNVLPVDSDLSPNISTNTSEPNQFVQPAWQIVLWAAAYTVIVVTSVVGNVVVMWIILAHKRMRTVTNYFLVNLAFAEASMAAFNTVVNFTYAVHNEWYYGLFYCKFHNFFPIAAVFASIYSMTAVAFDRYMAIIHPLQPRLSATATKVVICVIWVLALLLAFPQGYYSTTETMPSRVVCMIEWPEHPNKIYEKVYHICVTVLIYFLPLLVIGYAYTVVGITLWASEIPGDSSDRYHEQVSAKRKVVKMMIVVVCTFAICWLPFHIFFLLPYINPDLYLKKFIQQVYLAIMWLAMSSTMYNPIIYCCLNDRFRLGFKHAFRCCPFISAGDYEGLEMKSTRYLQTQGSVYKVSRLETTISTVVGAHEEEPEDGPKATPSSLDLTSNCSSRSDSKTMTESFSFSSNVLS

The experiment addresses T1, Human NK1 Receptor (Homo sapiens, UniProt P25103).
T1 construct: endogenous in cells; host or cells: Human lymphoma IM9 cells (whole cells)
In words: In Vitro Human NK1 Receptor Binding Assay ([125I]Bolton-Hunter substance P displacement, IM9 cells). The conditions noted are these: Human lymphoma IM9 cells, [125I]Bolton-Hunter substance P; Table 3, array-synthesis products; read-out: IC50 (nM) hNK1. In outline: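 Test compounds competed with 0.05-0.1 nM [125I]Bolton-Hunter substance P for binding to intact IM9 cells over 50 min at 21° C, pH 7.4 buffer with MnCl2 and peptidase inhibitors. […] [Sar9, Met(O2)11] substance P gave non-specific binding. Bound counts were measured after filtration and fitted iteratively.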
As for `O=C(NCc1ccccc1O)C(Cc1c[nH]c2ccccc12)NCc1cc2ccccc2o1` (centres unmarked) [Example 256, 2-[(Benzofuran-2-ylmethyl)-amino]-N-(2-hydroxy-benzyl)-3-(1H-indol-3-yl)-propionamide], the IC50 was above 10000 nM.

On to `CC(C)(CNC(=O)C(Cc1c[nH]c2ccccc12)NCc1cc2ccccc2o1)c1ccccc1` (centres unmarked) [Example 257, 2-[(Benzofuran-2-ylmethyl)-amino]-3-(1H-indol-3-yl)-N-(2-methyl-2-phenyl-propyl)-propionamide], for which the IC50 is above 10000 nM. With `O=C(NCc1ccc(Cl)cc1)C(Cc1c[nH]c2ccccc12)NCc1cc2ccccc2o1` (centres unmarked) [Example 258, 2-[(Benzofuran-2-ylmethyl)-amino]-N-(4-chloro-benzyl)-3-(1H-indol-3-yl)-propionamide], the 50% inhibitory concentration (IC50) was 46 nM.

Regarding `CCC(NC(=O)C(Cc1c[nH]c2ccccc12)NCc1cc2ccccc2o1)c1ccccc1` (centres unmarked) [Example 259, 2-[(Benzofuran-2-ylmethyl)-amino]-3-(1H-indol-3-yl)-N-(1-phenyl-propyl)-propionamide], the half-inhibitory concentration (IC50) is 21 nM. The same measure for `O=C(NCc1cccc([N+](=O)[O-])c1)C(Cc1c[nH]c2ccccc12)NCc1cc2ccccc2o1` (centres unmarked) [Example 260, 2-[(Benzofuran-2-ylmethyl)-amino]-3-(1H-indol-3-yl)-N-(3-nitro-benzyl)-propionamide]: 14 nM. On to `O=C(NCc1ccco1)C(Cc1c[nH]c2ccccc12)NCc1cc2ccccc2o1` (centres unmarked) [Example 261, 2-[(Benzofuran-2-ylmethyl)-amino]-N-furan-2-ylmethyl-3-(1H-indol-3-yl)-propionamide], for which the half-maximal inhibitory concentration (IC50) amounted to 406 nM. With `O=C(NC1CCc2ccccc21)C(Cc1c[nH]c2ccccc12)NCc1cc2ccccc2o1` (centres unmarked) [Example 262, 2-[(Benzofuran-2-ylmethyl)-amino]-N-indan-1-yl-3-(1H-indol-3-yl)-propionamide], the IC50 is 86 nM. Next, `O=C(NCc1cccc(Cl)c1)C(Cc1c[nH]c2ccccc12)NCc1cc2ccccc2o1` (centres unmarked) [Example 263, 2-[(Benzofuran-2-ylmethyl)-amino]-N-(3-chloro-benzyl)-3-(1H-indol-3-yl)-propionamide]: 9 nM; `CC(NC(=O)C(Cc1c[nH]c2ccccc12)NCc1cc2ccccc2o1)c1ccc(Cl)cc1` (centres unmarked) [Example 264, 2-[(Benzofuran-2-ylmethyl)-amino]-N-[1(4-chloro-phenyl)-ethyl]-3-(1H-indol-3-yl)-propionamide]: 7 nM; `CC(C)(NC(=O)C(Cc1c[nH]c2ccccc12)NCc1cc2ccccc2o1)c1ccccc1` (centres unmarked) [Example 265, 2-[(Benzofuran-2-ylmethyl)-amino]-3-(1H-indol-3-yl)-N-(1-methyl-1-phenyl-ethyl)-propionamide]: 328 nM. As for `O=C(NCC1CC2CCC1C2)C(Cc1c[nH]c2ccccc12)NCc1cc2ccccc2o1` (centres unmarked) [Example 266, 2-[(Benzofuran-2-ylmethyl)-amino]-N-bicyclo[2.2.1]-hept-2-ylmethyl-3-(1H-indol-3-yl)-propionamide], the IC50 worked out at 633 nM. `O=C(NCc1ccc2c(c1)OCO2)C(Cc1c[nH]c2ccccc12)NCc1cc2ccccc2o1` (centres unmarked) [Example 267, N-Benzo[1,3]-dioxol-5-ylmethyl-2-[(benzofuran-2-ylmethyl)-amino]-3-(1H-indol-3-yl)-propionamide]: the IC50 was 55 nM. Turning to `O=C(NCc1ccc(F)c(F)c1)C(Cc1c[nH]c2ccccc12)NCc1cc2ccccc2o1` (centres unmarked) [Example 268, 2-[(Benzofuran-2-ylmethyl)-amino]-N-(3,4-difluoro-benzyl)-3-(1H-indol-3-yl)-propionamide], the IC50 came to 10 nM. Turning to `O=C(NC1CCCCC1O)C(Cc1c[nH]c2ccccc12)NCc1cc2ccccc2o1` (centres unmarked) [Example 270, 2-[(Benzofuran-2-ylmethyl)-amino]-N-(2-hydroxy-cyclohexyl)-3-(1H-indol-3-yl)-propionamide], the IC50 was above 10000 nM.
